Laboratory results reported in ChEMBL document CHEMBL4043136, “Chiral-pool synthesis of 1,2,4-trisubstituted 1,4-diazepanes as novel σ1 receptor ligands” (Bioorg Med Chem, 2017).
The source made the active and inactive calls. No cut-off for these calls is given here.

Key:
[1] = target: Sigma non-opioid intracellular receptor 1 (Cavia porcellus) (UniProt Q60492); assay: Agonist activity at sigma1 receptor assessed as potentiation of electrically stimulated contractions of the guinea pig vas deferens relative to (S)-3-PPP
[2] = target: Adenosine receptor A3 (Homo sapiens) (UniProt P0DMS8); assay: Displacement of [125I]-AB-MECA from adenosine A3 receptor (unknown origin) at 1 uM
[3] = target: Kappa-type opioid receptor (Homo sapiens) (UniProt P41145); assay: Displacement of [3H]-d iprenorphine from kappa opioid receptor (unknown origin) at 1 uM
CYP3A4 = CYP3A4 (Homo sapiens, UniProt P08684); assay: Inhibition on CYP3A4 (unknown origin) at 1 uM; type: ADME
[4] = target: Neuropeptide Y receptor type 2 (Homo sapiens) (UniProt P49146); assay: Displacement of [125I]-Peptide YY from neuropeptide Y Y2 receptor (unknown origin) at 1 uM
[5] = target: Neuropeptide Y receptor type 1 (Homo sapiens) (UniProt P25929); assay: Displacement of [125I]-Peptide YY from neuropeptide Y Y1 receptor (unknown origin) at 1 uM
[6] = target: D(1A) dopamine receptor (Homo sapiens) (UniProt P21728); assay: Displacement of [3H]-SCH-23390 from dopamine D1 receptor (unknown origin) at 1 uM
Mus musculus [7] = assay: Cognition enhancing effect in mouse assessed as reversal of scopolamine-induced amnesia at 30 mg/kg, ip; type: functional, organism-based
[8] = target: Endothelin receptor type B (Homo sapiens) (UniProt P24530); assay: Displacement of [125I]-endothelin-1 from endothelin ETB receptor (unknown origin) at 1 uM
[9] = target: Alpha-1A adrenergic receptor (Homo sapiens) (UniProt P35348); assay: Displacement of [3H]-prazosin from adrenergic alpha1A receptor (unknown origin) at 1 uM
[10] = target: Sigma non-opioid intracellular receptor 1 (Cavia porcellus, UniProt Q60492); assay: Displacement of [3H]-pentazocine from sigma1 receptor in guinea pig brain membranes after 120 mins by liquid scintillation counting; type: cell membranes, Membrane
Albumin = Albumin (Homo sapiens, UniProt P02768); assay: Binding affinity to human serum albumin at 60 uM; type: ADME; details: isolated protein
[11] = target: Glutamate [NMDA] receptor (Homo sapiens) (UniProt Q05586+Q12879+Q13224+O15399+O60391+Q14957+Q8TCU5); assay: Displacement of [3H]-MDL-105519 from glutamate NMDA receptor glycine binding site (unknown origin) at 1 uM
[12] = target: Alpha-2A adrenergic receptor (Homo sapiens) (UniProt P08913); assay: Displacement of [3H]-MK-912 from adrenergic alpha2A receptor (unknown origin) at 1 uM
Homo sapiens [13] = species on record: Homo sapiens; assay: Displacement of [125I]-epibatidine from nicotinic acetylcholine receptor (unknown origin) at 1 uM
[14] = Metabolic stability in human microsomes assessed as amount of parent compound remaining after 5 mins; type: ADME, Microsome; details: read-out: Stability
[15] = target: Alpha-1D adrenergic receptor (Homo sapiens) (UniProt P25100); assay: Displacement of [3H]-prazosin from adrenergic alpha1D receptor (unknown origin) at 1 uM
[16] = target: B1 bradykinin receptor (Homo sapiens) (UniProt P46663); assay: Displacement of [3H]-(Des-Arg10)-Kallidin from bradykinin B1 receptor (unknown origin) at 1 uM
Homo sapiens [17] = species on record: Homo sapiens; assay: Displacement of [3H]-sp iperone from dopamine D4.2 receptor (unknown origin) at 1 uM
[18] = Displacement of [3H]-(+)-MK 801 from PCP binding site of NMDA receptor in pig brain cortex membranes after 120 mins by liquid scintillation spectrometry; type: cell membranes, Sus scrofa
Mus musculus [19] = assay: Toxicity in mouse at 1 mg/kg, ip by Irwin test; type: organism-based; details: in vivo
[20] = target: B2 bradykinin receptor (Homo sapiens) (UniProt P30411); assay: Displacement of [3H]-bradykinin from bradykinin B2 receptor (unknown origin) at 1 uM
CYP2C19 = CYP2C19 (Homo sapiens, UniProt P33261); assay: Inhibition on CYP2C19 (unknown origin) at 1 uM; type: ADME
[21] = target: C-C chemokine receptor type 5 (Homo sapiens) (UniProt P51681); assay: Displacement of [125I]-MIP-1beta from CCR5 receptor (unknown origin) at 1 uM
[22] = target: Beta-2 adrenergic receptor (Homo sapiens) (UniProt P07550); assay: Displacement of [3H]-CGP-12177 from adrenergic beta2 receptor (unknown origin) at 1 uM
[23] = target: Epidermal growth factor receptor (Homo sapiens) (UniProt P00533); assay: Displacement of [125I]-EGF from EGF receptor (unknown origin) at 1 uM
Homo sapiens [24] = species on record: Homo sapiens; assay: Displacement of [3H]-CGP-54626 from […] GABAB receptor (unknown origin) at 1 uM
[25] = target: Muscarinic acetylcholine receptor M1 (Homo sapiens) (UniProt P11229); assay: Displacement of [3H]-N-methylscopolamine from muscarinic M1 receptor (unknown origin) at 1 uM
[26] = target: 5-hydroxytryptamine receptor 1A (Homo sapiens) (UniProt P08908); assay: Displacement of [3H]-8-OH-DPAT from 5-HT1A receptor (unknown origin) at 1 uM
[27] = target: Histamine H1 receptor (Homo sapiens) (UniProt P35367); assay: Displacement of [3H]-Pyrilamine from histamine H1 receptor (unknown origin) at 1 uM
[28] = target: Melanocortin receptor 3 (Homo sapiens) (UniProt P41968); assay: Displacement of [125I]-NDP-alpha-MSH from melanocortin MC3 receptor (unknown origin) at 1 uM
[29] = target: Platelet-activating factor receptor (Homo sapiens) (UniProt P25105); assay: Displacement of [3H]-PAF from platelet activating factor receptor (unknown origin) at 1 uM
[30] = target: C-C chemokine receptor type 4 (Homo sapiens) (UniProt P51679); assay: Displacement of [125I]-TARC from CCR4 receptor (unknown origin) at 1 uM
Mus musculus [31] = assay: Toxicity in mouse assessed as diarrhea at 100 mg/kg, ip by Irwin test; type: organism-based; details: in vivo
[32] = target: D(2) dopamine receptor (Homo sapiens) (UniProt P14416); assay: Displacement of [3H]-sp iperone from dopamine D2 receptor (unknown origin) at 1 uM
[33] = target: T1, Sigma intracellular receptor 2 (Rattus norvegicus, UniProt Q5U3Y7); assay: Displacement of [3H]-DTG from sigma2 receptor in rat liver membranes after 120 mins by liquid scintillation counting; type: cell membranes, Membrane
T1 sequence (Q5U3Y7 whole entry): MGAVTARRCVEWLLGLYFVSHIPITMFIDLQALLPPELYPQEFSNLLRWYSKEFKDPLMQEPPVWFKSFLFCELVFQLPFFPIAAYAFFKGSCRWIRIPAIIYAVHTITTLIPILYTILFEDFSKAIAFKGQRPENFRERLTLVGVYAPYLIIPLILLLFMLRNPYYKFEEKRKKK

CYP2D6 = CYP2D6 (Homo sapiens, UniProt P10635); assay: Inhibition on CYP2D6 (unknown origin) at 1 uM; type: ADME
[34] = target: Mu-type opioid receptor (Homo sapiens) (UniProt P35372); assay: Displacement of [3H]-d iprenorphine from mu opioid receptor (unknown origin) at 1 uM

Chain of B2 bradykinin receptor (Homo sapiens) (P30411 whole entry): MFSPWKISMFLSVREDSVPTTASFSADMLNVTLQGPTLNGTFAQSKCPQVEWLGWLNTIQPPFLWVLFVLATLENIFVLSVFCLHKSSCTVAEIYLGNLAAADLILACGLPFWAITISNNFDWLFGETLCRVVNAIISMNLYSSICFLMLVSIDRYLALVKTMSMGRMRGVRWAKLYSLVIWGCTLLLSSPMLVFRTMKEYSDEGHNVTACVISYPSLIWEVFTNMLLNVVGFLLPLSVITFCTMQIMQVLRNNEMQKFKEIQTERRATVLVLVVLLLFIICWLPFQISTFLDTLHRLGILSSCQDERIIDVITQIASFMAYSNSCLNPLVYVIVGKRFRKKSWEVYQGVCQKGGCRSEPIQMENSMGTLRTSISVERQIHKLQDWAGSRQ
Chain of Alpha-1A adrenergic receptor (Homo sapiens) (P35348 whole entry): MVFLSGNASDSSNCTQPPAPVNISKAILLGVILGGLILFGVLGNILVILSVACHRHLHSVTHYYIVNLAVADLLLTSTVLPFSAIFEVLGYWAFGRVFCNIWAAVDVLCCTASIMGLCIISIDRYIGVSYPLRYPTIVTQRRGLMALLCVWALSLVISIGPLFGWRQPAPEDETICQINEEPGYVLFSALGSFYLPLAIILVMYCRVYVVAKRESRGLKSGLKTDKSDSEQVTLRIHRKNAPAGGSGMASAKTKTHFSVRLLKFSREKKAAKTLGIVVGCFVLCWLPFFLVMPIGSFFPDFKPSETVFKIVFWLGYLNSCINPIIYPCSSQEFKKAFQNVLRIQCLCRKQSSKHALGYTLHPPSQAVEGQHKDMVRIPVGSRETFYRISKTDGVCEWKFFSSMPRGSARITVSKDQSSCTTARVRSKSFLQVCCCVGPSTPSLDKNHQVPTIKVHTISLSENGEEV
Chain of CYP2D6 (P10635 whole entry): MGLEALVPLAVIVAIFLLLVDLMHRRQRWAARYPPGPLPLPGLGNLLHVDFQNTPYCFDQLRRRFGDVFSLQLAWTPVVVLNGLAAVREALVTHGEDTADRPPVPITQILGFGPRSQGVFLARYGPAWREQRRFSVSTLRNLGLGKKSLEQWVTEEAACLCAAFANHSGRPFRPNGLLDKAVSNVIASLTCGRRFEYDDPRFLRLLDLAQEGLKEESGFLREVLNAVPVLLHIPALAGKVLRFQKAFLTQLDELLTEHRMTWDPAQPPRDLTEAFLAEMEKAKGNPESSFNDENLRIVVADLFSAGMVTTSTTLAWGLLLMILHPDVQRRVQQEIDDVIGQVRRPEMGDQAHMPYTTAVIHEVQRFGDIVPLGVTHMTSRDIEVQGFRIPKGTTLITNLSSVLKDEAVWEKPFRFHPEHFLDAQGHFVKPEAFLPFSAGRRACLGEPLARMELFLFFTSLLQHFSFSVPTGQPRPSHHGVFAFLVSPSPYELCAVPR
Chain of D(1A) dopamine receptor (Homo sapiens) (P21728 whole entry): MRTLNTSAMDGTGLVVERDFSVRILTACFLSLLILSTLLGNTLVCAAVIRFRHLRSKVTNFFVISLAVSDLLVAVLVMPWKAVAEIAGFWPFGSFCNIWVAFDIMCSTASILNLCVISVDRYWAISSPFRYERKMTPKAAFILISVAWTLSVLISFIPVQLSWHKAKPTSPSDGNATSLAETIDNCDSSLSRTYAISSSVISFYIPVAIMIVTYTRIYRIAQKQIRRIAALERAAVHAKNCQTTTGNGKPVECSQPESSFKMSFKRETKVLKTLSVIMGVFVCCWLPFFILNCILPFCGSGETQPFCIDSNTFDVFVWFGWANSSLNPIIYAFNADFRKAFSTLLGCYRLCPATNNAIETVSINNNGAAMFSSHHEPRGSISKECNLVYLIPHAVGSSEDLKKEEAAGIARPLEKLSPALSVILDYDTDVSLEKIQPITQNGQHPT
Chain of Histamine H1 receptor (Homo sapiens) (P35367 whole entry): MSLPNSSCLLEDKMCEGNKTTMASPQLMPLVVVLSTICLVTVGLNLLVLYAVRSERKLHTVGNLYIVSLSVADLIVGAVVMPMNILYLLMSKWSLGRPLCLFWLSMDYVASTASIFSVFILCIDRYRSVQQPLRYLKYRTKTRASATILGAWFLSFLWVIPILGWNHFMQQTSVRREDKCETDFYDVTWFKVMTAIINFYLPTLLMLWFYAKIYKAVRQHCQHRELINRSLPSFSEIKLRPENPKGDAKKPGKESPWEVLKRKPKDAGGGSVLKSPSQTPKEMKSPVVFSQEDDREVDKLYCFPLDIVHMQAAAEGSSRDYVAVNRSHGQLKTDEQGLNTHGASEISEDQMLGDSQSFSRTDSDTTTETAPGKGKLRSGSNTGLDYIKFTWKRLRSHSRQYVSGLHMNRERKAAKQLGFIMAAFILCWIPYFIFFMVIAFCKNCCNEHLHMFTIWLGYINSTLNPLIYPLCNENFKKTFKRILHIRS
Chain of Melanocortin receptor 3 (Homo sapiens) (P41968 whole entry): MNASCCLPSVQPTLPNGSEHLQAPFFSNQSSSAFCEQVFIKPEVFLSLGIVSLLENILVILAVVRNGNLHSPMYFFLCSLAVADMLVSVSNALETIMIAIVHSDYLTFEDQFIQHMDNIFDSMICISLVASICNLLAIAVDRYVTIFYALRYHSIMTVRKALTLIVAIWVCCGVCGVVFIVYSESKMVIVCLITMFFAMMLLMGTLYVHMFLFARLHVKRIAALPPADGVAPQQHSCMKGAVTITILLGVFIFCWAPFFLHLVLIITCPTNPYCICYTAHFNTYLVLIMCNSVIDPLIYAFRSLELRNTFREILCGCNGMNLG
Chain of Adenosine receptor A3 (Homo sapiens) (P0DMS8 whole entry, looked up): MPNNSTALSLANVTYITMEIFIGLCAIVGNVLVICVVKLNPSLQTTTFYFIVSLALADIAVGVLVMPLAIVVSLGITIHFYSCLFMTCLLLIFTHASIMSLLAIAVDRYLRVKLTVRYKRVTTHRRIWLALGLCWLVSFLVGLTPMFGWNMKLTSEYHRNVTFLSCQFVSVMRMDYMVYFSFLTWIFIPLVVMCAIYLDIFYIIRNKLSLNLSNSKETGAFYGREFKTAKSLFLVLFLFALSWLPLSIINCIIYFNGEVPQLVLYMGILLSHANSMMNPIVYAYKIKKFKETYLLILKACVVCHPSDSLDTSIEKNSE
Chain of D(2) dopamine receptor (Homo sapiens) (P14416 whole entry): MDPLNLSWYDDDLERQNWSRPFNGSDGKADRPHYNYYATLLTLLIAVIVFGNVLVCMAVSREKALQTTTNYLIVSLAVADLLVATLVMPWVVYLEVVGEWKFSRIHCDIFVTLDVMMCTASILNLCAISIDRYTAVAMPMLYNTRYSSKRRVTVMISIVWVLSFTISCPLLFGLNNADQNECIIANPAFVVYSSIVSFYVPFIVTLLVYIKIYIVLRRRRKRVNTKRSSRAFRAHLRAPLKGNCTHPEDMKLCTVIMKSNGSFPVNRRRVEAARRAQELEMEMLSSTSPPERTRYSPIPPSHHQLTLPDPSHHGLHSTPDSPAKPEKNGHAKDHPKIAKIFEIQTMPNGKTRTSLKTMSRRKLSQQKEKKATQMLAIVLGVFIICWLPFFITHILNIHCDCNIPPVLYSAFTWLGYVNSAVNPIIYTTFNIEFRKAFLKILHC
Chain of Alpha-2A adrenergic receptor (Homo sapiens) (P08913 whole entry): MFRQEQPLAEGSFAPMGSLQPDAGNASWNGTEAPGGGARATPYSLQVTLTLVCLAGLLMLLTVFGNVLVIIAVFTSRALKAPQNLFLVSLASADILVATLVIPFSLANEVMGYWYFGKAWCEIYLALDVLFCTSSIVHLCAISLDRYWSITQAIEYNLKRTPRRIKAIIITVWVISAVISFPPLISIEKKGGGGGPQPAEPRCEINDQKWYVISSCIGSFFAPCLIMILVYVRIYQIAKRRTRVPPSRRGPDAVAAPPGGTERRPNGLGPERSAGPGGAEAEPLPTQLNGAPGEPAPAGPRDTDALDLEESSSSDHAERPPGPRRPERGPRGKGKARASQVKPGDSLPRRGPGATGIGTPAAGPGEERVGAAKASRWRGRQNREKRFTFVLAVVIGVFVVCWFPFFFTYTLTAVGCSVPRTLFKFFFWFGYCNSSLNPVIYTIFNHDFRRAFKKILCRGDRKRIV
Chain of CYP2C19 (P33261 whole entry): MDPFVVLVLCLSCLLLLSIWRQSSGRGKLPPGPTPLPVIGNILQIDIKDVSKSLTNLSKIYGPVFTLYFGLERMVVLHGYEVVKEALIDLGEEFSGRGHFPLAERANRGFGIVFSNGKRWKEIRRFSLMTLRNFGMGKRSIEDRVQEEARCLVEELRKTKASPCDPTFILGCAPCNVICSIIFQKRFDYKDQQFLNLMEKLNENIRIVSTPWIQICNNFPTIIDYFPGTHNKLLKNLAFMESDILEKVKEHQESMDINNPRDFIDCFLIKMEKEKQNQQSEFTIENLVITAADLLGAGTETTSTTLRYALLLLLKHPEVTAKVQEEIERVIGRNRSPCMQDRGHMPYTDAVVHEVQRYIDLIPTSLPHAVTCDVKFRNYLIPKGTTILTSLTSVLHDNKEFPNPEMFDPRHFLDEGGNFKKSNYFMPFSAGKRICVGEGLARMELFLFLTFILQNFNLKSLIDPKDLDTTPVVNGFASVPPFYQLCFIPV
Chain of Endothelin receptor type B (Homo sapiens) (P24530 whole entry): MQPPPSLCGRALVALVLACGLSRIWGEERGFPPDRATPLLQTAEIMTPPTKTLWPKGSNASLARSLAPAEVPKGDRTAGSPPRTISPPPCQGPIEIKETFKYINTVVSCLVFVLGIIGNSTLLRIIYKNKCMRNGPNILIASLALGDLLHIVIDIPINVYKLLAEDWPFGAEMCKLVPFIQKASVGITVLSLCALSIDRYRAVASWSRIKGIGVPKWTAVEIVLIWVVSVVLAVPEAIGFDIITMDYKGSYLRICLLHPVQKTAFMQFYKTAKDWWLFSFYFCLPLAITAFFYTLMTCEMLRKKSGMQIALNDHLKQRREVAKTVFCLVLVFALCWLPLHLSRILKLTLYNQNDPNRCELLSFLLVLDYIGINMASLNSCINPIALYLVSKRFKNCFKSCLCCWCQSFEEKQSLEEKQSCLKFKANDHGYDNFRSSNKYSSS

In the case of COc1ccc(CN2CCCN(Cc3ccccc3)[C@@H](C)C2)cc1, the Activity [1] is reported as “Dose-dependent effect”, the inhibition [2] is reported as “inactive” and the inhibition [3] is reported as “inactive”. The inhibition at 1 µM (CYP3A4) was 7%, the inhibition [4] was “inactive” and the inhibition [5] was “inactive”. For the same compound, the inhibition [6] was “inactive”, the Activity (Mus musculus [7]) was “Active” and the inhibition [8] was “inactive”. The inhibition [9] was “inactive”, the Ki [10] was 0.86 nM and the PB (Albumin) was 1.6%. For the same compound, the inhibition [11] was “inactive”, the inhibition [12] was “inactive” and the inhibition (Homo sapiens [13]) was “inactive”. For the same compound, the remaining at 5 min [14] was less than 50%, the inhibition [15] was “inactive” and the inhibition [16] was “inactive”. The inhibition (Homo sapiens [17]) was “inactive”, the IC50 [18] was greater than 1000 nM and the Activity (Mus musculus [19]) was “Non-Toxic”. The inhibition [20] was “inactive”, the inhibition at 1 µM (CYP2C19) was 38% and the inhibition [21] was “inactive”. For the same compound, the inhibition [22] was “inactive”, the inhibition [23] was “inactive” and the inhibition (Homo sapiens [24]) was “inactive”. The inhibition [25] was “inactive”, the inhibition [26] was “inactive” and the inhibition [27] was “inactive”. The inhibition [28] was “inactive”, the inhibition [29] was “inactive” and the inhibition [30] was “inactive”. The Activity (Mus musculus [31]) was “Toxic”, the inhibition [32] was “inactive” and the Ki [33] was 46 nM. The inhibition at 1 µM (CYP2D6) was 60% and the inhibition [34] was “inactive”.
